Tests used:
HUVEC = assay: CellTiter-Glo luminescent cell viability assay, HUVEC stimulated with hVEGF-165; format: cell-based; conditions: Homo sapiens, hVEGF-165 20 ng/ml, 72 hours, read-out: IC50 detected by CellTiter-Glo, HUVEC
Procedure: The intracellular ATP changes were measured by CellTiter-Glo® Luminescent Cell Viability Assay. The IC50 value of the compounds was used as an index to evaluate the inhibitory effect of the compounds on HUVEC in vitro.
HUVEC cell line (ATCC), EGM-2 BulletKit (Lonza), hVEGF-165 (Cell Signaling), trypsin (Invitrogen), DPBS (Hyclone), 384 cell plate (Greiner), 384 compound plate (Greiner), CO2 incubator (Thermo), centrifuge (Eppendorf), Vi-cell cell counter (Beckman Coulter), Bravo Automatic Liquid Workstation (Agilent), Envision (Perkin Elmer)
B: Cell plating: HUVEC cells were resuspended with starved medium (only containing 2% FBS and 0.1% GA-1000) and diluted to a concentration of 20,000/mL. The diluted cells were added to a 384 plate (Greiner), 50 μl per well. The cell plates were placed in a 37° C., 5% CO2 incubator overnight.
C: Drug addition: the test compounds were diluted 4 times to obtain a total of 10 doses at a final concentration of 10 uM to 0.038 nM, two parallel wells. The middle plate was added with 47.6 uL of starved medium per well. 2.4 μl of compounds was transferred from a gradient dilution compound plate to a middle plate and mixed well. 5 μl of liquid was transferred from the middle plate to a cell plate. Incubate for 1 hour at 37° C. in a 5% CO2 incubator, 5 μl of starved medium containing hVEGF-165 (the final concentration was 20 ng/ml) and Heparin (the final concentration was 1 ng/m) were added and incubated at 37° C. in a 5% CO2 incubator for 72 hours.
D: After 72 hours, 30 μl of assay reagents was added and incubated at room temperature for 10-30 minutes, Envision was used to read the plate.
The reading was converted into suppression rate (%) (Max−Sample)/(Max−Min)*100%. Parameter curve fitting (Model 205 in XLFIT5, iDBS) was used to measure to obtain IC50 data.

Calu 6 Transplant model = assay: Tumor growth inhibition (TGI), Calu 6 transplant model in mice; format: in vivo; conditions: QD
Procedure: The evolution and growth trends of the tumor was evaluated by the relationship between tumor volume and time. The long axis (L) and short axis (W) of the subcutaneous tumor were measured twice a week by the caliper and the volume of the tumor (TV) was calculated by the formula ((L×W^2)/2). TGI was calculated by the difference between the median tumor volume of the mice in the solvent group and the median tumor volume of the mice in the drug group expressed as a percentage of the tumor volume in the solvent control group
Calculated by the following formula: % TGI=((intermediate tumor volume (control)−intermediate tumor volume (administration group))/intermediate tumor volume (control group))×100%
The original statistical analysis was performed by repeated variance analysis, and then a multiple comparisons were performed using the Scheffe psot hoc test method. Individual solvent (0.5% methylcellulose+0.2% Tween aqueous solution) was a negative control.

VEGFR2 = molecular target: T1, VEGFR2 (Homo sapiens, UniProt P35968); assay: Z'-LYTE in vitro enzyme activity assay, VEGFR2; format: biochemical; conditions: 100 μM ATP, 60 minutes, room temperature; read-out: IC50 detected by Z'-LYTE, VEGFR2
T1 construct: purchased Life technology
T1 sequence (P35968 20-1356): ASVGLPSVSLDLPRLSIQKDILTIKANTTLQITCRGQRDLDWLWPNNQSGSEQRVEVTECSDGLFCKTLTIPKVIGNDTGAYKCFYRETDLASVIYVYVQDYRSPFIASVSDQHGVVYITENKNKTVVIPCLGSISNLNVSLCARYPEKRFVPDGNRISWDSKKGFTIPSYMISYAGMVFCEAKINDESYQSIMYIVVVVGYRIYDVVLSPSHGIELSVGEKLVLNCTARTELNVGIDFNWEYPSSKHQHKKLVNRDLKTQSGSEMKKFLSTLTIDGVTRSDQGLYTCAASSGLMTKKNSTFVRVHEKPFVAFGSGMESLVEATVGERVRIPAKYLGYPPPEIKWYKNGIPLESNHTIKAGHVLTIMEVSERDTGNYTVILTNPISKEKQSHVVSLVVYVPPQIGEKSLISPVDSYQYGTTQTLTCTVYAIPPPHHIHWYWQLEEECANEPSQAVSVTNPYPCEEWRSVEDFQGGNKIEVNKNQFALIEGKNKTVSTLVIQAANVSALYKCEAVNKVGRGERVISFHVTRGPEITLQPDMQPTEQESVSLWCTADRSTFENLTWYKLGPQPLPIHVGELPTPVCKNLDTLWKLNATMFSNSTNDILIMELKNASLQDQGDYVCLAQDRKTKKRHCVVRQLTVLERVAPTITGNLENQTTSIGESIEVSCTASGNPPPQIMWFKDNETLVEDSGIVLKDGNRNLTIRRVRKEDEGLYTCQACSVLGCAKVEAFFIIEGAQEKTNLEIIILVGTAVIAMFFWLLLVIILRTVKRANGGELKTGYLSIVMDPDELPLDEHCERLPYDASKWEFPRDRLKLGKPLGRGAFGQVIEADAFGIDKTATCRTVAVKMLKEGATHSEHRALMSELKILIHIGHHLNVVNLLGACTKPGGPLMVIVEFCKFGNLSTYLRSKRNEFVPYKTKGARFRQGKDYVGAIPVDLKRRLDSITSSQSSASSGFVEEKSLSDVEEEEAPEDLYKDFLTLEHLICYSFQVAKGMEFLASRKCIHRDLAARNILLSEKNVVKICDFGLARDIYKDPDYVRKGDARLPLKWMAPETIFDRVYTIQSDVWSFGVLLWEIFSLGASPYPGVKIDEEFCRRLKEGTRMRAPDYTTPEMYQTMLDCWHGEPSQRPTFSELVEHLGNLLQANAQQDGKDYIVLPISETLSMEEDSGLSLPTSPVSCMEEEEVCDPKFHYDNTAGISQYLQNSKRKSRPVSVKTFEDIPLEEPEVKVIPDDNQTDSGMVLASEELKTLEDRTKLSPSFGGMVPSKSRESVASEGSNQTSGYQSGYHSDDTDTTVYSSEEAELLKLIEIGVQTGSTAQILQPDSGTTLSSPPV
Summary of the method: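 Reaction with 3 nM VEGFR2, 2 μM Tyr1 peptide and 100 μM ATP in HEPES pH 7.5/MgCl2/EGTA/BRIJ-35, 1% DMSO, 60 min at room temperature; development reagent then 60 min at 23° C. Compounds tested at 11 threefold dilutions, 10 μM–0.17 nM final, in duplicate; IC50 from 4-parameter fit of inhibition.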

FGFR1 = molecular target: T2, FGFR1 (Homo sapiens, UniProt P11362); assay: Z'-LYTE in vitro enzyme activity assay, FGFR1; format: biochemical; conditions: 25 μM ATP, 60 minutes, room temperature; read-out: IC50 detected by Z'-LYTE, FGFR1
T2 construct: purchased Life technology
T2 sequence (P11362 22-822): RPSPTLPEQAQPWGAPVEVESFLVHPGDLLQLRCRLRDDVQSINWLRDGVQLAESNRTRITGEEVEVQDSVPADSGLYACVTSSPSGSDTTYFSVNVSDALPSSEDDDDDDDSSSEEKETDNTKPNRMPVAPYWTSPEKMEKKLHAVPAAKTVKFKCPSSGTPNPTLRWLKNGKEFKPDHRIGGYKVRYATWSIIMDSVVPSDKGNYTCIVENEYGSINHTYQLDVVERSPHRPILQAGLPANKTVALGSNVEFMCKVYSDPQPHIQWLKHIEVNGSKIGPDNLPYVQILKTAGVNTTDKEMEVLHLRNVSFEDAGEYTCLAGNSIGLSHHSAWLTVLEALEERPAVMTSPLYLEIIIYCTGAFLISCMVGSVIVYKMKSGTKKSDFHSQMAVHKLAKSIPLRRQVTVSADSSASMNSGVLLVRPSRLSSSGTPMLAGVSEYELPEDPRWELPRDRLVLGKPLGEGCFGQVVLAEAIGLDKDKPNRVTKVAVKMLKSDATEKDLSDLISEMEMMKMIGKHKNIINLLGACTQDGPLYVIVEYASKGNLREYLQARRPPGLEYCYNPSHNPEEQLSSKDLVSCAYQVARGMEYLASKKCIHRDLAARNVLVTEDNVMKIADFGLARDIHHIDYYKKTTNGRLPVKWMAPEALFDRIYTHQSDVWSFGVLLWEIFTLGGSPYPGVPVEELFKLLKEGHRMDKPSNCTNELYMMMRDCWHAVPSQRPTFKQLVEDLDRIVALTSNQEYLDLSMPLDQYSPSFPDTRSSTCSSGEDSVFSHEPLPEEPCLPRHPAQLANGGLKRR
Summary of the method: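 Z′-LYTE FRET assay with 1 nM FGFR1, 2 μM Tyr4 peptide and 25 μM ATP in HEPES pH 7.5 with Mg/Mn, 60 min at room temperature, then development 60 min at 23 °C. Compounds tested at 11 concentrations from 10 μM to 0.17 nM in 1% DMSO. IC50 from 4-parameter fit of inhibition.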

PDGFRB = molecular target: T3, PDGFRB (Homo sapiens, UniProt P09619); assay: Z'-LYTE in vitro enzyme activity assay, PDGFRB; format: biochemical; conditions: 100 μM ATP, 60 minutes, room temperature; read-out: IC50 detected by Z'-LYTE, PDGFRB
T3 construct: purchased Millipore
T3 sequence (P09619 33-1106): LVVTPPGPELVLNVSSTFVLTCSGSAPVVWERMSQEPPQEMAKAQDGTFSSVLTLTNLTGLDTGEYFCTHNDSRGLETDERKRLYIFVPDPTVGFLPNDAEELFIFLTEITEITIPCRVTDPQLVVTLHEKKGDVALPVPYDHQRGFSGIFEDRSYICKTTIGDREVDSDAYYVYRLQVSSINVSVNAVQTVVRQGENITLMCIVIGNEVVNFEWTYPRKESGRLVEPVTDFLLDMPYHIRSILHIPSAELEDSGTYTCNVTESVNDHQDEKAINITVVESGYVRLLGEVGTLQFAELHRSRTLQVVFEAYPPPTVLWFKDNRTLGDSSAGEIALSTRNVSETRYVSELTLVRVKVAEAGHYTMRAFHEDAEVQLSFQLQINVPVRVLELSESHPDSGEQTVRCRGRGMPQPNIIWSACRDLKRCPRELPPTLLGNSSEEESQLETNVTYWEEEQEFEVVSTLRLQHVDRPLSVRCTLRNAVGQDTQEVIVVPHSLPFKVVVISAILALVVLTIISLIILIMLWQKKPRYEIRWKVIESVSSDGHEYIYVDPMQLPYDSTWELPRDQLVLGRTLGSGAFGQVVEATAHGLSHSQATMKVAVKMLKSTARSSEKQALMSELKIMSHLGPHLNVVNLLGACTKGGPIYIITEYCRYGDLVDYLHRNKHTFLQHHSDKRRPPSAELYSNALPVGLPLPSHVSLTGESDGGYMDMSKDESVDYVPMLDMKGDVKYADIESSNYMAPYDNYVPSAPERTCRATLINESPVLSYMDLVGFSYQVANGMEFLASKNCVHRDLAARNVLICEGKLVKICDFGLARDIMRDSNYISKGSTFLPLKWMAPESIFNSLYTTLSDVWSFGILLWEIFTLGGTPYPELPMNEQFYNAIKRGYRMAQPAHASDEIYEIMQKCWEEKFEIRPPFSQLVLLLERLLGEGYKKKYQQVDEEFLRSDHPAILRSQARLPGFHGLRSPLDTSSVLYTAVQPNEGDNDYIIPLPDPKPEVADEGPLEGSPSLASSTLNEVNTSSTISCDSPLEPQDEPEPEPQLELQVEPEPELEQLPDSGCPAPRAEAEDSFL
Summary of the method: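 Z′-LYTE FRET kinase assay using 40 nM PDGFRB, 2 μM Tyr4 peptide and 100 μM ATP in HEPES pH 7.5 with Mg2+/Mn2+ and 1% DMSO. The reaction ran 60 min at room temperature, followed by development for 60 min at 23 °C. IC50 values came from 4-parameter fits over 11 concentrations (10 μM–0.17 nM).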

IC50 (VEGFR2) [nM] | IC50 (FGFR1) [nM] | IC50 (PDGFRB) [nM] | SMILES | IC50 (HUVEC) [nM] | TGI % (last administration) (Calu 6 Transplant model; 50 mg/kg) [%] | TGI % (last administration) (Calu 6 Transplant model; 100 mg/kg) [%] | TGI % (last administration) (Calu 6 Transplant model; 10 mg/kg) [%]
< 50 | 200 to 1000 | 50 to 200 | COc1cc2nccc(Oc3ccc(NC(=S)NC4CC4)c(Cl)c3)c2cc1C(N)=O [Example 1] | < 100 | 57 |  | 
200 to 1000 | 200 to 1000 | 200 to 1000 | COc1cc2nccc(Oc3ccc4oc(C(=O)N5CC(F)(F)C5)cc4c3)c2cc1C(N)=O [Example 190] | 100 to 1000 |  |  | 
200 to 1000 | 200 to 1000 | 200 to 1000 | COc1cc2nccc(Oc3ccc4oc(C(=O)NC5CC5)cc4c3)c2cc1C(N)=O [Example 191] | 100 to 1000 |  |  | 
< 50 | 50 to 200 | < 50 | [2H]C([2H])([2H])NC(=O)c1coc2cc(Oc3ccnc4cc(OC)c(C(N)=O)cc34)ccc12 [Example 200] | < 100 |  | 59 | 
< 50 | 200 to 1000 | < 50 | COc1cc2nccc(Oc3cc4occ(C(=O)NC5CC5)c4cc3F)c2cc1C(N)=O [Example 207] | 100 to 1000 |  |  | 
50 to 200 | 50 to 200 | < 50 | [2H]C([2H])([2H])NC(=O)c1coc2cc(Oc3ccnc4cc(OC)c(C(N)=O)cc34)c(F)cc12 [Example 209] | 100 to 1000 |  |  | 
< 50 | 200 to 1000 | < 50 | CCNC(=O)c1coc2cc(Oc3ccnc4cc(OC)c(C(N)=O)cc34)ccc12 [Example 210] | < 100 |  |  | 
< 50 | 200 to 1000 | < 50 | Cn1cnc(-c2ccc3c(Oc4ccc(NC(=S)NC5CC5)c(Cl)c4)ccnc3c2)c1 [Example 212] | 100 to 1000 |  |  | 
< 50 | < 50 | 50 to 200 | Cn1cnc(-c2ccc3c(Oc4ccc(NC(=O)NC5CC5)c(Cl)c4F)ccnc3c2)c1 [Example 214] | < 100 |  |  | 
< 50 | 50 to 200 | 50 to 200 | Cn1cncc1-c1ccc2c(Oc3ccc(NC(=O)NC4CC4)c(Cl)c3F)ccnc2c1 [Example 215] | < 100 |  |  | 
< 50 | < 50 | 50 to 200 | CCNC(=O)Nc1ccc(Oc2ccnc3cc(-c4cn(C)cn4)ccc23)c(F)c1Cl [Example 216] | < 100 |  |  | 83
< 50 | 50 to 200 | < 50 | Cn1cnc(-c2ccc3c(Oc4ccc(NC(=O)N5CC(F)(F)C5)c(Cl)c4F)ccnc3c2)c1 [Example 218] | 100 to 1000 |  |  | 
< 50 | < 50 | 50 to 200 | Cn1cnc(-c2ccc3c(Oc4ccc(NC(=O)N5CCCC5)c(Cl)c4F)ccnc3c2)c1 [Example 219] | < 100 |  |  | 
< 50 | < 50 | 50 to 200 | CCNC(=O)Nc1ccc(Oc2ccnc3cc(-c4cn(C)cn4)ccc23)cc1Cl [Example 220] | < 100 |  |  | 
< 50 | < 50 | 50 to 200 | Cn1cnc(-c2ccc3c(Oc4ccc(NC(=O)NC5CC5)c(Cl)c4)ccnc3c2)c1 [Example 221] | < 100 |  |  | 
< 50 | < 50 | 50 to 200 | CCNC(=O)c1coc2cc(Oc3ccnc4cc(-c5cn(C)cn5)ccc34)ccc12 [Example 222] | < 100 |  |  | 
< 50 | < 50 | 50 to 200 | Cn1cnc(-c2ccc3c(Oc4ccc5c(C(=O)NC6CC6)coc5c4)ccnc3c2)c1 [Example 223] | < 100 |  |  | 
< 50 | < 50 | < 50 | [2H]C([2H])([2H])NC(=O)c1coc2cc(Oc3ccnc4cc(-c5cn(C)cn5)ccc34)ccc12 [Example 224] | < 100 |  |  | 
< 50 | < 50 | 50 to 200 | CNC(=O)c1coc2cc(Oc3ccnc4cc(-c5cn(C)cn5)ccc34)ccc12 [Example 225] | < 100 |  |  | 
